Reference: patent US12246022B2, “Compositions and methods for treating, preventing or reversing age associated inflammation and disorders” (BROWN UNIVERSITY, priority 2019, dated 2025)
pIC50: −log10 of the molar value. Where two headings read alike, the source gives them in different places.

What was measured:
human LINE-1 = experiment: Human LINE-1 retrotransposition assay, related experiments with islatravir (pYX017, HeLa cells, Tables 12 and 13); type: cell-based; conditions: Homo sapiens
Procedure: In related experiments, islatravir and other compounds were tested for inhibition of retrotransposition activity of human LINE-1 in HeLa cells according to the following procedure.
HeLa cervical cancer cells were cultivated at 37° C. in a humidified 5% CO2 incubator in Dulbecco's Modified Eagle's Medium (DMEM)—high glucose, with 4500 mg/L glucose, L-glutamine, sodium pyruvate and sodium bicarbonate (Sigma), supplemented with 10% of heat inactivated fetal bovine serum (Thermo Fisher).
Assays were performed using reporter plasmid pYX017 as described (Xie, et al., 2011) with several modifications. The reporter assay was performed in 96-well white optical bottom plates. HeLa cells were seeded in wells 24 h prior to transfection and compound treatment so that cells were approximately 30% confluent on the day of transfection. Different cell plating densities were tested and a density of 2×10^3 cells was determined to be optimal.
Compounds were resuspended in DMSO. Serial dilutions (1:3) were prepared in DMSO. Medium containing different concentrations of the compounds were prepared by adding 2 μl of the compound dilution to 1 ml of the culture medium. The final concentration of DMSO in the medium was 0.2%.
FuGENE® HD transfection reagent (Promega, E2311, Lot 382574 and Lot 397842) was used to transfect the plasmids into the cells. The transfection reagent: DNA mixture was prepared in OpiMEM (Thermo Fisher) according to manufacturer's instructions. Different ratios of transfection reagent to DNA were tested and a ratio of 3:1 was determined to be optimal. Culture medium was removed from the cells and discarded. The transfection reagent: DNA mixture (5 μl) was mixed with the compound containing medium (100 μl/well) and this was added onto the cells of each well. Cells were incubated at 37° C./5% CO2 for different incubation time. A 72 h incubation time was determined to be optimal.
Luciferase reporter activity was quantified with the Dual-Luciferase® Reporter Assay System (Promega) according to manufacturer's instructions for multiwell plates except that cells were lysed directly on the multiwell plate with 30 μl of the passive lysis buffer (PLB) for 20 min at room temperature, with gentle shaking to ensure complete cell lysis.
Firefly and Renilla luciferase signals were measured using a SpectraMax i3x Multi-Mode Microplate Reader. Integration times of 100 ms and 10 ms were used to measure the Firefly and Renilla signals respectively. Relative L1 activity is calculated as Firefly/Renilla *1000 or Firefly/Renilla *10,000. Dose response inhibition data were fit to a four parameter logistic equation using non-linear regression (using Graphpad Prism 8), to determine IC50 values for each inhibitor.

[1] = Comparative studies: intracellular drug concentration relative to LINE-1 IC50 and huCSF/Plasma ratio; conditions: Table 13 Comparative Studies
IFN-I response = IFN-I response in senescent and 3X human fibroblasts (RT-qPCR, ELISA, immunoblotting); type: cell-based
Description: To obtain replicatively senescent (RS) cells, LF1 cultures were serially propagated until proliferation ceased. At each passage, after reaching 80% confluence cells were trypsinized and diluted 1:4. […] In early passage cultures, the time between passages is constant at approximately 3 days. […] At this point, after reaching 80% confluence, the cells were replated at 1:2 dilution, and this time was designated as the last passage (point A in FIG. 2A). […] Under this experimental regimen, the majority of the cells in the culture enter senescence within a 3-4 weeks window centered roughly around the time of last passage (grey bar in FIG. 2A). At point B (4 weeks), the cultures were trypsinized and replated as described^60 to eliminate a small fraction of persisting contact-inhibited cells. Cultures were again replated at point C (8 weeks).
Oncogene-induced senescence (OIS) was elicited by infecting proliferating LF1 cells with pLenti CMV RasV12 Neo (Addgene plasmid #22259). Generation of lentiviral particles and the infection procedure are described below. At the end of the infection, cells were reseeded at 15-20% confluency and selected with G418 (250 μg/ml) maintained continuously until the end of the experiment Medium was changed every 3 days until the cultures were harvested at the indicated time points. Stress-induced premature senescence (SIPS) was elicited by […] irradiation with 20 Gy given at a rate of 87 cGy/min in one fraction using a cesium-137 gamma source (Nordion Gammacell 40). Cells were 15-20% confluent at the time of irradiation. Medium was changed immediately after irradiation, and at 3-day intervals thereafter. […]
The ABI ViiA 7 instrument (Applied Biosystems) was used for all experiments. qPCR of DNA was performed using the TaqMan system (Applied Biosystems) as described by Coufal et al. (2009).^64 […] of purified genomic DNA was used with the indicated primers (see Table 1). […] Effectiveness of the DNase digestion was assessed using controls that omitted the RT enzyme. […]

[2] = HeLa, Table 13 Comparative Studies, read-out: Human Line-1 IC50

Nc1nc(=O)n([C@@H]2CS[C@H](CO)O2)cc1F [Emtricitabine]
pIC50 (human LINE-1; [2]): 5.87 | Human Line-1 Intracellular drug conc. (% of IC-50 conc.) [1]: 67% | interferon gene expression (IFN-α, IFN-β1) (IFN-I response; LF1, 50 μM, drug for 1 month from 3 months in senescence): decreased the expression of interferons

Nc1ccn([C@@H]2CS[C@H](CO)O2)c(=O)n1 [Lamivudine]
pIC50 (human LINE-1; [2]): 6.19 | pIC50 (human LINE-1; HeLa cells, pYX017, 72 h, n = 3, read-out: Human LINE-1 IC50, Average): 6.10 | pIC50 (human LINE-1; HeLa cells, pYX017, 72 h, read-out: Human LINE-1 IC50, Exp.1): 6.05 | pIC50 (human LINE-1; HeLa cells, pYX017, 72 h, read-out: Human LINE-1 IC50, Exp.2): 6.15 | Human Line-1 Intracellular drug conc. (% of IC-50 conc.) [1]: 9% | concentration range that optimally inhibited the IFN-I response (IFN-I response; senescent cells): 7.5 to 10 µM
